Here are results for 28 compounds from ChEMBL document CHEMBL2169751, “Synthesis and biological evaluation of novel pyrazole derivatives with anticancer activity” (2011).

In this experiment the test system is Mycobacterium tuberculosis. Kind of experiment: Antimycobacterial activity against Mycobacterium tuberculosis H37Rv ATCC 27294 after 7 days by Resazurin assay. The experiment is classed as functional. The arrangement: concentration or dose not given beside the values.

On to `O=C(N/N=C/c1cnc[nH]1)c1cnc2c(C(F)(F)F)cccc2c1O`, for which the “inhibition (INH)” value is listed as 90%.
On to `Cc1[nH]cnc1/C=N/NC(=O)c1cnc2c(C(F)(F)F)cccc2c1O`, for which the “inhibition (INH)” value came to 90%.
The figure for `Cc1cc(C)cc(NC(=O)NNC(=O)c2cnc3c(C(F)(F)F)cccc3c2O)c1` is less than 90%.
Consider `COc1ccc(/C=N/NC(=O)c2cnc3c(C(F)(F)F)cccc3c2O)cc1O`, for which the “inhibition (INH)” value is given as less than 90%.
Turning to `COc1ccc(/C=N/NC(=O)c2cnc3c(C(F)(F)F)cccc3c2O)cc1`, the “inhibition (INH)” value is recorded as 90%.
To `Cc1ccc(NC(=S)NNC(=O)c2cnc3c(C(F)(F)F)cccc3c2O)cc1` belongs 0%.
Take `O=C(NNC(=S)Nc1cccc(Cl)c1)c1cnc2c(C(F)(F)F)cccc2c1O`: the “inhibition (INH)” value was less than 90%.
For `Cn1cccc1/C=N\NC(=O)c1cnc2c(C(F)(F)F)cccc2c1O`, the “inhibition (INH)” value came to 90%.
Turning to `O=C(NNC(=S)Nc1ccccc1F)c1cnc2c(C(F)(F)F)cccc2c1O`, the “inhibition (INH)” value stood at 95%.
On to `COc1ccc(NC(=O)NNC(=O)c2cnc3c(C(F)(F)F)cccc3c2O)cc1`, for which the “inhibition (INH)” value was found to be 90%.
To `O=C(N/N=C/c1ccc(OC(F)(F)C(F)F)cc1)c1cnc2c(C(F)(F)F)cccc2c1O` belongs less than 90%.
On to `NNC(=O)c1ccncc1` [ISONIAZID], for which the “inhibition (INH)” value is listed as 95%.
For `Cc1ccc(/C=N/NC(=O)c2cnc3c(C(F)(F)F)cccc3c2O)cc1`, the “inhibition (INH)” value is listed as less than 90%.
The figure for `O=C(N/N=C/c1ccc2c(c1)CCO2)c1cnc2c(C(F)(F)F)cccc2c1O` is 0%; for `COc1ccc(/C=N/NC(=O)c2cnc3c(C(F)(F)F)cccc3c2O)c(F)c1` it is 95%.
To `O=C(NNC(=O)c1cnc2c(C(F)(F)F)cccc2c1O)Nc1cccc(Cl)c1` belongs less than 90%.
The figure for `O=C(N/N=C/c1cc(F)ccc1O)c1cnc2c(C(F)(F)F)cccc2c1O` is less than 90%; for `O=C(N/N=C/c1ccncc1)c1cnc2c(C(F)(F)F)cccc2c1O` it is 0%.
As to `Cn1nnc2cc(/C=N\NC(=O)c3cnc4c(C(F)(F)F)cccc4c3O)ccc21`, the “inhibition (INH)” value is reported as less than 90%.
To `Cc1ccc(NC(=O)NNC(=O)c2cnc3c(C(F)(F)F)cccc3c2O)cc1` belongs 90%; to `O=C(NNC(=S)Nc1cccnc1)c1cnc2c(C(F)(F)F)cccc2c1O`, 0%.
As to `Cc1cccc2c(/C=N/NC(=O)c3cnc4c(C(F)(F)F)cccc4c3O)c[nH]c12`, the “inhibition (INH)” value was found to be 95%.
The figure for `CCc1ccc(NC(=O)NNC(=O)c2cnc3c(C(F)(F)F)cccc3c2O)cc1` is less than 90%.
Take `COc1ccc(NC(=S)NNC(=O)c2cnc3c(C(F)(F)F)cccc3c2O)cc1`: the “inhibition (INH)” value was less than 90%.
In the case of `COC(=O)Cc1cc(/C=N/NC(=O)c2cnc3c(C(F)(F)F)cccc3c2O)co1`, the “inhibition (INH)” value is recorded as less than 90%.
On to `COc1ccc2[nH]cc(/C=N/NC(=O)c3cnc4c(C(F)(F)F)cccc4c3O)c2c1`, for which the “inhibition (INH)” value came out at 95%.
The figure for `CSc1ccccc1/C=N/NC(=O)c1cnc2c(C(F)(F)F)cccc2c1O` is 0%; for `CO[C@H]1/C=C/O[C@@]2(C)Oc3c(C)c(O)c4c(O)c(c(/C=N/N5CCN(C)CC5)c(O)c4c3C2=O)NC(=O)/C(C)=C\C=C\[C@H](C)[C@H](O)[C@@H](C)[C@@H](O)[C@@H](C)[C@H](OC(C)=O)[C@@H]1C` [RIFAMPIN] it is 95%.
